Experimental data taken from patent publication US7572603B2, “Alpha-2 adrenergic receptor polymorphisms” (University of Cincinnati, priority 2000, dated 2009).
Where a chain is given by its changes, count along the chain named. Values belong to the compound of their own block, whether it stands above or below them.

Key:
[1] = target: T1, wild-type alpha-2CAR (Homo sapiens, UniProt P18825, L239R/R446P/S401I); assay: Inhibition of forskolin-stimulated adenylyl cyclase, CHO cell membranes; assay type: biochemical; design: expressed in transfected cells; membranes or intact cells; conditions: for Max Inhibition (%) of adenylyl cyclase: CHO line expressing 1570 ± 79.9 fmol/mg
T1 sequence (P18825 1-462 L239R/S401I/R446P): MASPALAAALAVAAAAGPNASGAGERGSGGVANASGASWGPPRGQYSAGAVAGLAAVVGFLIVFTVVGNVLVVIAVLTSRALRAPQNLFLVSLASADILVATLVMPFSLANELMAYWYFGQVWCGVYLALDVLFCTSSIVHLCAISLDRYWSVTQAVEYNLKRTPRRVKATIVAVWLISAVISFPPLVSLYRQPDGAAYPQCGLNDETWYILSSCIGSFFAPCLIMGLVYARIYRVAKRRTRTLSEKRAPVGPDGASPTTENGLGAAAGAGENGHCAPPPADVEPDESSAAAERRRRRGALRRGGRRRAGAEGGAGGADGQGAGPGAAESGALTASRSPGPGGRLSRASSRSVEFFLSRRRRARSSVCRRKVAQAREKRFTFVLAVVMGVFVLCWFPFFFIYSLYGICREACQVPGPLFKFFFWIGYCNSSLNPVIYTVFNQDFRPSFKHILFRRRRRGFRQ

[2] = target: T2, Lys251 alpha-2AAR (Homo sapiens, UniProt P08913, N266K); assay: [35S]GTPyS binding, COS-7 membranes coexpressing receptor and Gi alpha2; assay type: biochemical; design: expressed in transfected cells; membranes or intact cells; conditions: 10 μM agonist
T2 sequence (P08913 16-465 N266K): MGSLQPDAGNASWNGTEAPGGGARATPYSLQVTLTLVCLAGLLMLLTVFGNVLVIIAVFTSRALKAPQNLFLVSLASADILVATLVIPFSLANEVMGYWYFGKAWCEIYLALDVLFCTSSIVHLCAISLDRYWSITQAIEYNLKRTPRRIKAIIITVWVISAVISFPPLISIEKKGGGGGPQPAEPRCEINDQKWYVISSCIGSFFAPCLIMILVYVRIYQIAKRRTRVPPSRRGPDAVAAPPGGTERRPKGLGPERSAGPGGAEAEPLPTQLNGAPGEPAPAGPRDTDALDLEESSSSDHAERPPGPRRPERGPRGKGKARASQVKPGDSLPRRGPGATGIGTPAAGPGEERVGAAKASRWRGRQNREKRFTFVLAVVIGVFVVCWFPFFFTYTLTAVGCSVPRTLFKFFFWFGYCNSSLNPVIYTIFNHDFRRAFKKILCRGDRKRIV
Method: Nonspecific binding was measured in the presence of […] GTPyS.

[3] = target: T3, wild-type alpha-2CAR (Homo sapiens, UniProt P18825); assay: Inhibition of forskolin-stimulated adenylyl cyclase, CHO cell membranes; assay type: biochemical; conditions: CHO line expressing 1570 ± 79.9 fmol/mg
T3 construct: expressed in transfected cells; membranes or intact cells
T3 sequence (P18825 1-462 L239R/S401I/R446P): T1 sequence (P18825 1-462 L239R/S401I/R446P)

[4] = target: T1, wild-type alpha-2CAR; conditions: 10 μM epinephrine, 5 min; expression 806 fmol/mg
[5] = target: T1, wild-type alpha-2CAR; conditions: epinephrine competition, absence of GTP
[6] = target: T1, wild-type alpha-2CAR; conditions: 10 μM epinephrine vs 1 unit/ml thrombin
[7] = target: T4, wild-type alpha-2BAR (Homo sapiens, UniProt P18089); assay type: cell-based; design: expressed in transfected cells; host or cells: COS-7, transient (DEAE-dextran), co-transfected with GRK2; conditions: 10 μM norepinephrine 15 minutes, GRK2 co-expressed
T4 sequence (P18089 1-450): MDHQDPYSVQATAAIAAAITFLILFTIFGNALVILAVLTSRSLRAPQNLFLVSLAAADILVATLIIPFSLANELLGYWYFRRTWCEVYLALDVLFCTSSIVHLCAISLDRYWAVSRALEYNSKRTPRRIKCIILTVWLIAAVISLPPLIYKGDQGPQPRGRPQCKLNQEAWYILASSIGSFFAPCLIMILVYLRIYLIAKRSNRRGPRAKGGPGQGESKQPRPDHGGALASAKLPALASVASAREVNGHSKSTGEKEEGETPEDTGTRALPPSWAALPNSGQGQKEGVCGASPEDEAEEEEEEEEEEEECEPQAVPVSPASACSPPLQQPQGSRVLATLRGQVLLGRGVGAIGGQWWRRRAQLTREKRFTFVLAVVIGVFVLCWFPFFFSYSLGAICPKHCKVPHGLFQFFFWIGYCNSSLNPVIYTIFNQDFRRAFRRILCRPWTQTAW

[8] = target: T4, wild-type alpha-2BAR; assay: Inhibition of forskolin-stimulated adenylyl cyclase, CHO cell membranes, incl. desensitization; assay type: biochemical; design: The human receptor consists of 450 amino acids; expressed in transfected cells; membranes
[9] = target: T2, Lys251 alpha-2AAR
[10] = target: T5, wild-type Asn251 alpha-2AAR (Homo sapiens, UniProt P08913); conditions: expression 2360±263 fmol/mg
T5 sequence (P08913 16-465): T2 sequence (P08913 16-465 N266K) with K251N

Max Inhibition (%) of adenylyl cyclase [1]: 56.8 ± 1.41%
enhanced [35S]GTPyS binding for the Lys251 receptor as compared to the Asn251 receptor [2]: 45%
EC50 [3]: 5500 ± 2110 nM
Structure (SMILES): CCN1CCc2nc(N)oc2CC1 [BHT-933]

Structure (SMILES): Brc1c(NC2=NCCN2)ccc2nccnc12 [UK 14304]
Max Inhibition (%) of adenylyl cyclase [1]: 67.6 ± 2.09%
enhanced [35S]GTPyS binding for the Lys251 receptor as compared to the Asn251 receptor [2]: ~40%

Structure (SMILES): Clc1cccc(Cl)c1N=C1NCCN1 [clonidine]
Max Inhibition (%) of adenylyl cyclase [1]: 38.5 ± 2.44%

Structure (SMILES): CNC[C@H](O)c1ccc(O)c(O)c1 [epinephrine]
stimulated accumulation of inositol phosphates over basal [4]: 3Q
agonist-promoted inhibition of adenylyl cyclase ([1]; lower expressing line, 565 fmol/mg): 73%
% RH (percentage of receptors in the high-affinity state) [5]: 42%
MAP kinase stimulation as a percent of the thrombin response [6]: 128

Structure (SMILES): N=C(N)N/N=C/c1c(Cl)cccc1Cl [guanabenz]
Max Inhibition (%) of adenylyl cyclase [1]: 53.8 ± 1.99%
enhanced [35S]GTPyS binding for the Lys251 receptor as compared to the Asn251 receptor [2]: 72%

Structure (SMILES): NC[C@H](O)c1ccc(O)c(O)c1 [norepinephrine]
fold increase in receptor phosphorylation with agonist exposure [7]: 5.84±0.49 fold
Max Inhibition (%) of adenylyl cyclase [1]: 76.6 ± 1.60%
enhanced [35S]GTPyS binding for the Lys251 receptor as compared to the Asn251 receptor [2]: ~40%
Desensitization % ([8]; after 10 μM norepinephrine 30 min at 37° C.): ~54%
Submax inhibition % Ctrl ([8]; at the EC50 of control membranes, cells pretreated with media alone): 16.5±3.9%
Max Inhibition of forskolin-stimulated adenylyl cyclase ([8]; receptor density 626±54 fmol/mg): 28.5±1.6%

augmented function (adenylyl cyclase inhibition) compared to the Asn251 receptor ([9]; Lys251 vs Asn251): ~40%
Maximal inhibition of forskolin-stimulated adenylyl cyclase ([9]; expression 2590±140 fmol/mg): 50±6.6%
Max Inhibition (%) of adenylyl cyclase [1]: 27.0 ± 2.70%
Maximal inhibition of forskolin-stimulated adenylyl cyclase [10]: 35±4.7%
Structure (SMILES): Cc1cc(C(C)(C)C)c(O)c(C)c1CC1=NCCN1 [oxymetazoline]
